Values quoted from earlier work as cited in US20040121961A1, “Uroguanylin and cyclooxygenase-2 inhibitor combinations for inhibition of intestinal cancer” (priority 2004, published 2004).
No end group written: not given here.

Experiments:
[1] = system: T-84, human colon carcinoma cells; details: treatment with uroguanylin; reported in PCT/US00/21998
[2] = system: Min-mouse, an animal model for human Familial Adenomatous Polyposis (FAP); details: oral administration, reported in PCT/US00/21998

Substance: uroguanylin: enteric peptide hormone, GC-C receptor agonist; human uroguanylin chemically synthesized by solid phase peptide synthesis (NDDCELCVNVACTGCL; ends and bridges not checked; cysteine pairing not given here; UniProt Q16661 97-112, looked up)
- apoptosis in T-84 cells [1]: induction of apoptosis
- polyp formation in the intestinal tract [2]: inhibition in polyp formation
